For orientation: pest or weed control means the degree to which the test organism was suppressed or injured, in per cent. Read a low pest or weed control as a weak effect.

Pest or weed control data for seven compounds are collected here from patent US20250127170A1, “TRIAZINE HERBICIDAL COMPOUNDS” (SYNGENTA CROP PROTECTION AG, priority 2021, published 2025).

Holding throughout (type): in vivo
Details in all cases: 312 h, evaluated after 13 days, 100=total damage to plant, 0=no damage to plant

The test system of assay [1] is Lolium perenne (LOLPE). Briefly: Pre-emergence biological efficacy. As for the experimental part: (§1) Seeds of weeds and/or crops were sown in standard soil in pots (Amaranthus palmeri (AMAPA), Lolium perenne (LOLPE), Euphorbia heterophylla (EPHHL), Ipomoea hederacea (IPOHE), Setaria faberi (SETFA), Echinochloa crus-galli (ECHCG)). After cultivation for one day under controlled conditions in a glasshouse (at 24/19° C., day/night; 16 hours light), the plants were sprayed with an aqueous spray solution derived from the formulation of the technical active ingredient in a small amount of acetone and a special solvent and emulsifier mixture referred to as IF50 (11.12% Emulsogen EL360™+44.44% N-methylpyrrolidone+44.44% Dowanol DPM glycol ether), to create a 50 g/l solution which was then diluted using 0.2% Genapol XO80 as diluent to give the desired final dose of test compound.
(§2) The test plants were then grown under controlled conditions in the glasshouse (at 24/18° C., day/night; 15 hours light; 50% humidity) and watered twice daily. After 13 days the test was evaluated (100=total damage to plant; 0=no damage to plant).

Assay [2] has as its system Setaria faberi (SETFA). Briefly: Pre-emergence biological efficacy. As for the experimental part: as §1, §2
Assay [3] has as its system Ipomoea hederacea (IPOHE). Briefly: Pre-emergence biological efficacy. As for the experimental part: as §1, §2
In assay [4] the test system is Echinochloa crus-galli (ECHCG). Put plainly: Pre-emergence biological efficacy. The protocol:
as §1, §2

Assay [5] relates to Euphorbia heterophylla (EPHHL). Put plainly: Pre-emergence biological efficacy. The protocol: as §1, §2
Assay [6] relates to Amaranthus palmeri (AMAPA). Put plainly: Pre-emergence biological efficacy. The protocol: as §1, §2
For assay [7], the system named is Lolium perenne (LOLPE). Put plainly: Post-emergence biological efficacy. As for the experimental part: as §1, with “Chenopodium album (CHEAL),” for “Lolium perenne (LOLPE),”, “(IPOHE), Eleusine indica (ELEIN), Lolium perenne (LOLPE), Digitaria sanguinalis (DIGSA),” for “(IPOHE),”, “14 days” for “one day”, “compound. The test plants were then grown under controlled conditions in the glasshouse (at 24/18° C., day/night; 15 hours light; 50% humidity) and watered twice daily. After 13 days the test was evaluated (100=total damage to plant; 0=no damage to plant).” for “compound.”

The test system of assay [8] is Setaria faberi (SETFA). Briefly: Post-emergence biological efficacy. As for the experimental part: as §1, with “Chenopodium album (CHEAL),” for “Lolium perenne (LOLPE),”, “(IPOHE), Eleusine indica (ELEIN), Lolium perenne (LOLPE), Digitaria sanguinalis (DIGSA),” for “(IPOHE),”, “14 days” for “one day”, “compound. The test plants were then grown under controlled conditions in the glasshouse (at 24/18° C., day/night; 15 hours light; 50% humidity) and watered twice daily. After 13 days the test was evaluated (100=total damage to plant; 0=no damage to plant).” for “compound.”

Assay [9] deals with Chenopodium album (CHEAL). Put plainly: Post-emergence biological efficacy. As for the experimental part:
as §1, with “Chenopodium album (CHEAL),” for “Lolium perenne (LOLPE),”, “(IPOHE), Eleusine indica (ELEIN), Lolium perenne (LOLPE), Digitaria sanguinalis (DIGSA),” for “(IPOHE),”, “14 days” for “one day”, “compound. The test plants were then grown under controlled conditions in the glasshouse (at 24/18° C., day/night; 15 hours light; 50% humidity) and watered twice daily. After 13 days the test was evaluated (100=total damage to plant; 0=no damage to plant).” for “compound.”

For assay [10], the system named is Ipomoea hederacea (IPOHE). Briefly: Post-emergence biological efficacy. As for the experimental part: as §1, with “Chenopodium album (CHEAL),” for “Lolium perenne (LOLPE),”, “(IPOHE), Eleusine indica (ELEIN), Lolium perenne (LOLPE), Digitaria sanguinalis (DIGSA),” for “(IPOHE),”, “14 days” for “one day”, “compound. The test plants were then grown under controlled conditions in the glasshouse (at 24/18° C., day/night; 15 hours light; 50% humidity) and watered twice daily. After 13 days the test was evaluated (100=total damage to plant; 0=no damage to plant).” for “compound.”

Assay [11] relates to Echinochloa crus-galli (ECHCG). Briefly: Post-emergence biological efficacy. The protocol:
as §1, with “Chenopodium album (CHEAL),” for “Lolium perenne (LOLPE),”, “(IPOHE), Eleusine indica (ELEIN), Lolium perenne (LOLPE), Digitaria sanguinalis (DIGSA),” for “(IPOHE),”, “14 days” for “one day”, “compound. The test plants were then grown under controlled conditions in the glasshouse (at 24/18° C., day/night; 15 hours light; 50% humidity) and watered twice daily. After 13 days the test was evaluated (100=total damage to plant; 0=no damage to plant).” for “compound.”

For assay [12], the system named is Euphorbia heterophylla (EPHHL). Briefly: Post-emergence biological efficacy. The protocol:
as §1, with “Chenopodium album (CHEAL),” for “Lolium perenne (LOLPE),”, “(IPOHE), Eleusine indica (ELEIN), Lolium perenne (LOLPE), Digitaria sanguinalis (DIGSA),” for “(IPOHE),”, “14 days” for “one day”, “compound. The test plants were then grown under controlled conditions in the glasshouse (at 24/18° C., day/night; 15 hours light; 50% humidity) and watered twice daily. After 13 days the test was evaluated (100=total damage to plant; 0=no damage to plant).” for “compound.”

For assay [13], the system named is Amaranthus palmeri (AMAPA). Put plainly: Post-emergence biological efficacy. As for the experimental part: as §1, with “Chenopodium album (CHEAL),” for “Lolium perenne (LOLPE),”, “(IPOHE), Eleusine indica (ELEIN), Lolium perenne (LOLPE), Digitaria sanguinalis (DIGSA),” for “(IPOHE),”, “14 days” for “one day”, “compound. The test plants were then grown under controlled conditions in the glasshouse (at 24/18° C., day/night; 15 hours light; 50% humidity) and watered twice daily. After 13 days the test was evaluated (100=total damage to plant; 0=no damage to plant).” for “compound.”

For the next assay, the system named is Eleusine indica (ELEIN). Put plainly: Post-emergence biological efficacy. As for the experimental part: as §1, with “Chenopodium album (CHEAL),” for “Lolium perenne (LOLPE),”, “(IPOHE), Eleusine indica (ELEIN), Lolium perenne (LOLPE), Digitaria sanguinalis (DIGSA),” for “(IPOHE),”, “14 days” for “one day”, “compound. The test plants were then grown under controlled conditions in the glasshouse (at 24/18° C., day/night; 15 hours light; 50% humidity) and watered twice daily. After 13 days the test was evaluated (100=total damage to plant; 0=no damage to plant).” for “compound.”

Assay [14] has as its system Digitaria sanguinalis (DIGSA). Put plainly: Post-emergence biological efficacy. The protocol:
as §1, with “Chenopodium album (CHEAL),” for “Lolium perenne (LOLPE),”, “(IPOHE), Eleusine indica (ELEIN), Lolium perenne (LOLPE), Digitaria sanguinalis (DIGSA),” for “(IPOHE),”, “14 days” for “one day”, “compound. The test plants were then grown under controlled conditions in the glasshouse (at 24/18° C., day/night; 15 hours light; 50% humidity) and watered twice daily. After 13 days the test was evaluated (100=total damage to plant; 0=no damage to plant).” for “compound.”

Consider `CCOC(=O)C1(NC(=O)c2cc(-n3c(=O)n(C)c(=S)n(C)c3=O)c(F)cc2Cl)CC1` [Compound 1-240, ethyl 1-[[2-chloro-5-(3,5-dimethyl-2,6-dioxo-4-thioxo-1,3,5-triazinan-1-yl)-4-fluoro-benzoyl]amino]cyclopropanecarboxylate], for which the pest or weed control at 250 g/ha in the assay with Lolium perenne (LOLPE) [1] is 30%; with Setaria faberi (SETFA) [2], 70%; in assay [3] it was 10%; in [4] it was 30%; in assay [5], 100%; in assay [6], 100%. Also, the pest or weed control at 250 g/ha turned out to be 90% in the assay with Lolium perenne (LOLPE) [7]; 80% in the assay with Setaria faberi (SETFA) [8]; 100% in assay [9]; 60% in assay [10]; 30% in assay [11]; 100% in [12]. For the same compound, the pest or weed control at 250 g/ha in assay [13] was found to be 100%; with Eleusine indica (ELEIN) it was 100%; in assay [14], 70%.
Consider `CCOC(=O)[C@H]1C[C@@H](OC(=O)c2cc(-n3c(=O)n(C)c(=S)n(C)c3=O)c(F)cc2Cl)C1` [1-981 (cis), (cis)-(3-Ethoxycarbonylcyclobutyl) 2-chloro-5-(3,5-dimethyl-2,6-dioxo-4-thioxo-1,3,5-triazinan-1-yl)-4-fluoro-benzoate], for which the pest or weed control at 250 g/ha in the assay on Lolium perenne (LOLPE) [1] stood at 80%; in the assay on Setaria faberi (SETFA) [2], 50%; in [3], 70%; in [4] it was 100%; in [5], 50%; in assay [6], 100%. Further, the pest or weed control at 250 g/ha with Lolium perenne (LOLPE) [7] is 70%; with Setaria faberi (SETFA) [8], 100%; in assay [9], 100%; in [10], 50%; in assay [11], 80%; in assay [12] it was 60%. In addition, the pest or weed control at 250 g/ha in assay [13] came to 80%; in the assay with Eleusine indica (ELEIN), 50%; in [14] it was 50%.
As for `CCOC(=O)CC(C)N(C)C(=O)c1cc(-n2c(=O)n(C)c(=S)n(C)c2=O)c(F)cc1Cl` (stereo not drawn) [Compound 1-405, Ethyl 3-[[2-chloro-5-(3,5-dimethyl-2,6-dioxo-4-thioxo-1,3,5-triazinan-1-yl)-4-fluoro-benzoyl]-methyl-amino]butanoate], the pest or weed control at 250 g/ha (in the assay on Lolium perenne (LOLPE) [1]; in the assay on Setaria faberi (SETFA) [2]; in [3]; in [4]; in assay [5]; in [6]) was 0% in each case. Also, the pest or weed control at 250 g/ha came to 10% in the assay on Lolium perenne (LOLPE) [7]; 10% in the assay with Setaria faberi (SETFA) [8]; 60% in [9]; 40% in [10]; 10% in assay [11]; 20% in [12]. In addition, the results for the pest or weed control at 250 g/ha (in assay [13]; with Eleusine indica (ELEIN); in assay [14]) were 60%, 50% and 40%, respectively.
On to `CCOC(=O)COC(=O)c1cc(-n2c(=O)n(C)c(=S)n(C)c2=O)c(F)cc1Cl` [Compound 1-12, (2-ethoxy-2-oxo-ethyl]-2-chloro-5-(3,5-dimethyl-2,6-dioxo-4-thioxo-1,3,5-triazinan-1-yl)-4-fluoro-benzoate], for which the pest or weed control at 250 g/ha in the assay on Lolium perenne (LOLPE) [1] was 90%; in the assay with Setaria faberi (SETFA) [2], 80%; in [3], 80%; in [4], 90%; in assay [5], 90%; in assay [6] it was 100%. The pest or weed control at 250 g/ha (with Lolium perenne (LOLPE) [7]; in the assay on Setaria faberi (SETFA) [8]; in assay [9]; in assay [10]; in [11]; in assay [12]) was 100% in each case. Further, the pest or weed control at 250 g/ha (in [13]; in the assay on Eleusine indica (ELEIN); in assay [14]) was 100% in each case.
Turning to `CCOC(=O)C[C@H](C)OC(=O)c1cc(-n2c(=O)n(C)c(=S)n(C)c2=O)ccc1Cl` [Compound 1-360 (S-enantiomer), [(1S)-3-ethoxy-1-methyl-3-oxo-propyl] 2-chloro-5-(3,5-dimethyl-2,6-dioxo-4-thioxo-1,3,5-triazinan-1-yl)benzoate], the pest or weed control at 250 g/ha in the assay with Lolium perenne (LOLPE) [1] came out at 70%; with Setaria faberi (SETFA) [2], 90%; in [3], 20%; in [4], 80%; in assay [5] it was 30%; in assay [6] it was 80%. Besides, the pest or weed control at 250 g/ha is 100% in the assay with Lolium perenne (LOLPE) [7]; 100% in the assay with Setaria faberi (SETFA) [8]; 100% in [9]; 70% in assay [10]; 100% in assay [11]; 90% in assay [12]. In addition, the pest or weed control at 250 g/ha was found to be 100% in assay [13], 90% in the assay with Eleusine indica (ELEIN) and 100% in assay [14].
As to `CCOC(=O)[C@H](C)OC(=O)c1cc(-n2c(=O)n(C)c(=S)n(C)c2=O)c(F)cc1Cl` [Compound 1-63 (S-enantiomer), [(1S)-2-ethoxy-1-methyl-2-oxo-ethyl]-2-chloro-5-(3,5-dimethyl-2,6-dioxo-4-thioxo-1,3,5-triazinan-1-yl)-4-fluoro-benzoate], the pest or weed control at 250 g/ha was 90% in the assay with Lolium perenne (LOLPE) [1]; 80% in the assay with Setaria faberi (SETFA) [2]; 60% in [3]; 100% in [4]; 90% in assay [5]; 100% in assay [6]. Also, the pest or weed control at 250 g/ha (with Lolium perenne (LOLPE) [7]; in the assay on Setaria faberi (SETFA) [8]; in [9]; in assay [10]; in assay [11]; in assay [12]) was 100% each time. Moreover, the pest or weed control at 250 g/ha (in assay [13]; in the assay on Eleusine indica (ELEIN); in assay [14]) was 100% throughout.
In the case of `CCOC(=O)CC1(NC(=O)c2cc(-n3c(=O)n(C)c(=S)n(C)c3=O)c(F)cc2Cl)CC1` [Compound 1-744, Ethyl 2-[1-[[2-chloro-5-(3,5-dimethyl-2,6-dioxo-4-thioxo-1,3,5-triazinan-1-yl)-4-fluoro-benzoyl]amino]cyclopropyl]acetate], the pest or weed control at 250 g/ha came to 60% in the assay with Lolium perenne (LOLPE) [1]; 50% with Setaria faberi (SETFA) [2]; 10% in assay [3]; 80% in assay [4]; 70% in assay [5]; 40% in [6]. Moreover, the pest or weed control at 250 g/ha amounted to 60% in the assay with Lolium perenne (LOLPE) [7]; 10% with Setaria faberi (SETFA) [8]; 60% in [9]; 30% in assay [10]; 30% in assay [11]; 70% in assay [12]. Besides, the pest or weed control at 250 g/ha in assay [13] is 30%; with Eleusine indica (ELEIN), 50%; in [14], 20%.
